Measurements as given in publication PMC10049354, “Anti-Inflammatory Effects and Photo- and Neuro-Protective Properties of BIO203, a New Amide Conjugate of Norbixin, in Development for the Treatment of Age-Related Macular Degeneration (AMD)” (International Journal of Molecular Sciences, 2023).

Columns and labels:
[1] = Powder stability at RT, 4 °C and −20 °C for up to 18 months (LC-MS/MS); assay type: physicochemical; settings: for loss of the compound: 4 °C
Description: The potential breakdown of BIO203 compared to BIO201 was assessed every three months in samples stored for up to 18 months at room temperature, 4 °C, and −20 °C. On the day of analysis, weighted samples of BIO203 and norbixin powder were solubilized in DMSO at 10 mg/mL final concentration. DMSO solutions were further diluted 400-fold before performing LC-MS/MS analysis which was performed on an LC 1260 System coupled with Mass Spectrometer QQQ-6420 with DAD (Supplier Agilent Technologies). BIO201 and BIO203 were eluted from a reverse-phase column (2.1 mm × 50 mm; 5 μm particles; Fortis C18) with the following gradient of acetonitrile in water (both containing 0.1% formic acid): 10 to 100% in 10 min), (flow-rate: 0.3 mL/min), (UV detection A: 460 nm, B: 254 nm, DAD: 210–500 nm), (MS scan+: 50 to 800 Frag 120 CAV 5, MS scan-: 50 to 800 Frag 120 CAV 5). The AUC value was used to determine the stability of each compound.

AP-1 = AP-1 transactivation assay induced by A2E; assay type: cell-based, pig; settings: compound 20 μM; A2E 20 μM
Description: Transactivation assays were performed as previously described. Briefly, RPE cells were plated in DMEM 2% FCS at a density of 6 × 10^4 cells/cm^2. The next day transfections using the Cignal Reporter Assay Kits for PPAR, RXR, AP-1, and NF-κB were performed with Lipofectamine and Plus Reagent in serum-free medium. Three hours after the transfection, A2E and/or BIO203, both at 20 μM, were added to the culture medium for 24 h. Luciferase activity was measured using the Dual-Luciferase Reporter Assay System and with a luminometer (Infinite M1000 from Tecan, Mannedorf, Switzerland). At least 3 independent transfections were performed in triplicate for each condition.

IL-8 = IL-8 mRNA expression induced by A2E (quantitative RT-PCR); assay type: cell-based, pig; settings: BIO203 20 mM (so in the source); A2E 20 μM; porcine RPE cells; p < 0.001
Description: (§1) RPE cells were obtained from pig eyes, as previously described. RPE cells were seeded on a 96-well plate at a density of 1.5 × 10^5 cells/cm^2 in DMEM 2% FCS. BIO201, BIO203, or its pure enantiomers were added in increasing concentrations to the culture medium 48 h before illumination. A2E was added to the medium at a final concentration of 30 μM, and 19 h later, blue-light illumination was performed for 50 min using a 96 blue-led device (Durand, St Clair de la Tour, France) emitting at 470 nm (1440 mcd, 8.6 mA). Just before illumination, the culture medium was replaced by a modified DMEM without any photosensitizer and with 2% FCS. Twenty-four hours after blue-light irradiation, all cell nuclei were stained with Hoechst 33342, and nuclei of dead cells with ethidium homodimer 2, fixed with paraformaldehyde (4% in PBS, 10 min) and 9 pictures per well were captured using a fluorescence microscope (Nikon TiE) equipped with a CoolSNAP HQ2 camera and driven by Metamorph Premier On-Line program. Quantification of live cells was performed using Metamorph Premier Off-Line and a homemade program by subtraction of dead cells from all cells. For cytokines mRNA analysis, RPE cells were seeded in 24-well plates and left untreated or treated with A2E or BIO203 alone or A2E plus BIO203. […]

[2] = Acute ocular PK in rats following a single IP administration; assay type: in vivo, rat; settings: for intraocular AUC / intraocular Cmax / time of intraocular Cmax post-administration: norbixin 10 mg/kg, BIO203 8.8 mg/kg
Description: The compounds were administered to 8–9 months-old Male Sprague-Dawley rats (n = 3 per group and per collection time) by the intraperitoneal route in vehicle (DMSO/NaCl/NaOH for BIO203 and PBS/Tween 80 (95/5) for norbixin) with an administration volume of 10 mL/kg. The solutions of BIO203 and norbixin were centrifuged, and the clear supernatants were administered to rats. The final injected concentrations were 10 mg/kg and 8.8 mg/kg for norbixin and BIO203, respectively. Doses administered differ because BIO201 and BIO203 solubility are not equivalent in their respective vehicles, and the dose of BIO203 was reduced to avoid toxicity of DMSO present in the vehicle, but the same volumes were injected into animals. Eyes were collected post-administration according to the following timing: 0, 0.08 h, 0.25 h, 0.5 h, 1 h, 1.5 h, 2 h, 4 h, 8 h, and 24 h. After euthanasia, the two eyes of each rat were collected in a Precellys tube, frozen, and stored at −80 °C.
Analysis was performed on an LC 1260 System coupled with Mass Spectrometer QQQ-6420 with DAD (Agilent Technologies). Norbixin and BIO203 were eluted from a reverse-phase column (2.1 × 50 mm; 3 μm particles; Ace Excel C18) with the following gradient of acetonitrile in water (both containing 0.1% formic acid): 55 to 100% in 5 min), (flowrate: 0.3 mL/min). […] were monitored by a mass spectrometer, in positive MRM mode, with the following transitions, respectively, 381.1 -> 144.9 and 478.1 -> 362.9. For quantification of BIO201 and BIO203, calibration curves were prepared under the same conditions as the sample matrix, with various amounts of BIO201 or BIO203 (25 to 10,000 ng/mL in plasma and 5 to 500 ng/mL for eyes).
For determination of concentrations of BIO201 or BIO203 in ocular tissues, each eye was homogenized in CHCl3/MeOH (1:1, v/v) (0.5 mL) with a homogenizer (Precellys-24) during 2 cycles (30 s) at 6500 rpm. The internal standard (retinoic acid at 10 µg/mL) was added, and the organic layer was extracted. The homogenate was then extracted two times with CHCl3/CH2Cl2 (0.5 mL). The combined organic extracts were dried in vacuo without heating (EZ2, Genevac Ltd., Ipswich, UK). Then they were dissolved in 100 μL DMSO/MeOH (1:1, v/v) and transferred to microtiter plates for LC-MS/MS analysis.

VEGF = VEGF mRNA expression induced by A2E (quantitative RT-PCR); assay type: cell-based, pig; settings: BIO203 20 mM (so in the source); A2E 20 μM; porcine RPE cells; p < 0.001
Description: as §1

IL-6 = system: IL-6; design: method as in PMID 34544906; settings: norbixin at 20 mM (so in the source); cited from earlier work

Row | loss of the compound ([1]; 3 months) | loss of the compound ([1]; 6 months) | loss of the compound ([1]; 12 months) | left of the initial quantity ([1]; RT, 3 months) | left of the initial quantity ([1]; RT, stabilized between 12 and 18 months) | loss of compound ([1]; −20 °C, after one year) | stability ([1]; −20 °C, up to 6 months) | remaining intraocular concentration at 24 h ([2]; rat eye, single IP, 24 h) | SMILES | stability ([1]; RT, +4 °C and −20 °C, 18 months) | inhibition of AP1 transactivation induced by A2E (AP-1) | change of IL-8 mRNA expression induced by A2E (IL-8) | ocular AUC increase compared to BIO201 ([2]; discussion summary) | ocular Cmax increase compared to BIO201 ([2]; discussion summary) | concentration at 24 h ([2]; male, Sprague-Dawley, 8.8 mg/kg, rat eye, single IP, 24 h, read-out: remaining intraocular concentration at 24 h) | intraocular AUC of BIO203 relative to norbixin ([2]; rat eye, single IP) | intraocular AUC ([2]; rat eye, single IP) | intraocular Cmax ([2]; rat eye, single IP) | time of intraocular Cmax post-administration ([2]; rat eye, single IP) | change of VEGF mRNA expression induced by A2E (VEGF) | effect on IL-6 mRNA expression (IL-6)
1 | – | – | – | – | – | – | – | – | COC1CCCN(C(=O)/C=C/C(C)=C/C=C/C(C)=C/C=C/C=C(C)/C=C/C=C(C)\C=C\C(=O)O)C1 (centres unmarked) [BIO203] | stable at all temperatures tested for at least 18 months | inhibited | −86.8% | > 200 fold | more than 10 fold | ~2 ng/mL | approximately 280 times | 704.1 ng·h/eye | 133.1 ng/eye | 1 h | −84.8% | –
2 | 10% | −20.8% | −66.4% | 41% | 22.1% | −18.1% | appeared stable | no longer detectable | CC(=C/C=C/C(C)=C/C=C/C=C(C)/C=C/C=C(C)/C=C/C(=O)O)/C=C/C(=O)O [norbixin, 9′-cis-norbixin] | – | – | – | – | – | – | – | 2.5 ng·h/eye | less than 8.5 ng/eye | 0.25 h | – | significantly reduced
